Laboratory results reported in article PMC4914680 (Antimicrobial Agents and Chemotherapy, 2016).
Where two headings read alike, the source gives them in different places.

Assays:
[1] = tested on: HIV-1 NL4-3 ΔV370 variant (NLRepRlucP373S/Δ370); type: cell-based
HIV-1 RF = assay: Multiple-cycle assay, laboratory strains; type: cell-based; conditions: Human immunodeficiency virus 1
HIV-1 HXB2 = assay: Multiple-cycle assay, laboratory strains; type: cell-based; conditions: Human immunodeficiency virus 1; HXB2, CXCR4, MT-2
HIV-1 MN = assay: Multiple-cycle assay, laboratory strains; type: cell-based; conditions: Human immunodeficiency virus 1, CXCR4, MT-2
HIV-1 Bal = assay: Multiple-cycle assay, laboratory strains; type: cell-based; conditions: Human immunodeficiency virus 1, CCR5, PM1
HIV-1 JRFL = assay: Multiple-cycle assay, laboratory strains; type: cell-based; conditions: Human immunodeficiency virus 1, CCR5, PM1
[2] = tested on: V370M virus (recombinant virus with gag/pr genes from a clinical isolate); assay: microbe, parasite or virus in culture; type: cell-based, HIV-1; conditions: Human immunodeficiency virus 1, MT2, read-out: EC50 (SD)
HIV-1 protease = HIV-1 protease (Human immunodeficiency virus type 1 group M subtype B, UniProt P03366); assay: HIV-1 protease assay; type: biochemical
[3] = tested on: HIV-LAI envelope-pseudotyped RepRlucP373SΔenv virus; assay: Two-stage single-cycle pseudotype assay (HIV-1 entry assay); type: cell-based
in vitro = conditions: dog
[4] = Serum binding assay (ultracentrifugation)
[5] = tested on: HIV-1 subtype F clinical isolate; assay: Drug susceptibility assay using clinical isolates in PBMCs; conditions: Human immunodeficiency virus 1, PBMC
[6] = tested on: HIV-1 group O clinical isolates; assay: as above; conditions: Human immunodeficiency virus 1, PBMC
[7] = tested on: viruses from subtypes A, C, D, F, and G; assay: as above; conditions: Human immunodeficiency virus 1, PBMC, read-out: EC50s (range)

`C=C(C)[C@@H]1CC[C@]2(NCCN3CCS(=O)(=O)CC3)CC[C@]3(C)[C@H](CC[C@@H]4[C@@]5(C)CC=C(c6ccc(C(=O)O)cc6)C(C)(C)[C@@H]5CC[C@]43C)[C@@H]12` [BMS-955176] gave an EC50 ([1]; Human immunodeficiency virus 1, NL43, MT2) of 0.013 µM, an EC50 ([1]; Human immunodeficiency virus 1, NL43, MT2, read-out: EC50 (SD)) of 0.013 µM and an EC50 (HIV-1 RF) of 0.0077 ± 0.0014 µM. It also gave an EC50 (HIV-1 HXB2) of 0.011 ± 0.002 µM, an EC50 (HIV-1 MN) of 0.0009 ± 0.0006 µM and an EC50 (HIV-1 Bal) of 0.0007 ± 0.0002 µM. For the same compound, the EC50 (HIV-1 JRFL) was 0.0025 ± 0.0008 µM, the EC50 [2] was 0.01 µM and the IC50 (HIV-1 protease) was greater than 10 µM. The “inhibition of luciferase, compound added at stage 1 (virus production)” value [3] was “inhibiting luciferase production only when added in the first stage”, the “inhibition of luciferase, compound added at stage 2 (infection)” value [3] was “inhibiting luciferase production only when added in the first stage” and the CC50 (in vitro) was 3.9 µM. It also gave a human serum binding ([4]; 100% human serum, ultracentrifugation method) of 86%, a fraction unbound at 1 h, 0.052 µM ([4]; human, serum) of 0.14 and an EC50 ([5]; read-out: Mean EC50) of 0.0059 µM. For the same compound, the EC50 ([5]; read-out: Median EC50) was 0.006 µM, the EC50 ([5]; read-out: Range EC50) was 0.006 µM and the EC50 ([6]; read-out: Mean EC50 ± SD, PBMCs, group O, 5 isolates) was 0.17 ± 0.24 µM. For the same compound, the EC50 ([6]; read-out: Median EC50, PBMCs, group O, 5 isolates) was 0.03 µM, the EC50 ([6]; read-out: Range EC50, PBMCs, group O, 5 isolates) was 0.001 to 0.552 µM and the EC50 [7] was 0.0059 to 0.087 µM.
